From patent US4857650A, “Novel renin inhibitory amino acid derivatives” (Kissei Pharmaceutical Co., Ltd., priority 1985, dated 1989)
pIC50: −log10 of the molar value. Values belong to the molecule of their own block, whether it stands above or below them.

How the values were obtained:
[1] = molecular target: T1, human renin (Homo sapiens, UniProt P00797); settings: 106th Annual Meeting of the Pharmaceutical Society of Japan (April, 1986)/Meeting of Japanese Circulation Journal (March, 1986); cited from earlier work
T1 sequence (P00797 67-406): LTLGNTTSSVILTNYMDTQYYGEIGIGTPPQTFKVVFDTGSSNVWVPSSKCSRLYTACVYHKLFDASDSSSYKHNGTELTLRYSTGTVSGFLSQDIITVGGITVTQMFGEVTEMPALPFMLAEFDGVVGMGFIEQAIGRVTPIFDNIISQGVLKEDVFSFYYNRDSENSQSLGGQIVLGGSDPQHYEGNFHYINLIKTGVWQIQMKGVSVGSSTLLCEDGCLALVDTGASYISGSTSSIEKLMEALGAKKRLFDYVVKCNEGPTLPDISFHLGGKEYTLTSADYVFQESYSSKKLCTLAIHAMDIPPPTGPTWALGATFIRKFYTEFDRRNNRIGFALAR

[2] = molecular target: T1, human renin; experiment: Human renin-sheep renin substrate reaction system in vitro; format: biochemical; settings: pH 7.4, 15 minutes at 37° C., read-out: IC50 (molar concentration)
Description: Human resin-sheep resin substrate reaction system in vitro To a mixture containing 200 μl of a 125 mM pyrophosphate buffer (pH 7.4), 25 μl of a 20 mM aqueous solution of […] as an angiotensin converting enzyme inhibitor, 50 μl of semipurified sheep renin substrate ([…]), 50 μl of dimethyl sulfoxide solution of an amino acid derivative of the present invention (or 50 μl of dimethyl sulfoxide as a control) and 150 μl of deionized water was added 25 μl of purified human renin (20-30 ng angiotensin I/ml/hr). The mixture was incubated for 15 minutes on a water bath at 37° C., and the reaction mixture was allowed to stand for 5 minutes on a water bath at 100° C. to stop the reaction. After cooling, 200 μl of the solution were taken up and the amount of angiotensin I produced by the addition of renin was determined by radioimmunoassay. The inhibitory effect was calculated by the following equation. [formula] The molar concentration which produced 50% inhibition (IC50) was calculated from the inhibition value obtained, and the results are shown below.

[3] = molecular target: T2, renin in human high renin plasma (Homo sapiens, UniProt P00797); experiment: Renin inhibitory effect in a human high renin plasma; format: biochemical; settings: pH 7.4, 30 minutes at 37° C., read-out: IC50 (molar concentration)
T2 construct: 500 μl of human high renin plasma; from tissue; host or cells: human high renin plasma
T2 sequence (P00797 67-406): T1 sequence (P00797 67-406)
Description: Renin inhibitory effect in a human high renin plasma A mixture of 350 μl of a 0.5M phosphate buffer containing 14 mM EDTA 2Na and a 0.3% neomycin sulfate, which was adjusted to the pH of 7.4, 50 μl of a 20 mM an aqueous solution of […] as an angiotensin converting enzyme inhibitor and 100 μl of dimethyl sulfoxide solution containing an amino acid compound of the present invention was added to 500 μl of human high renin plasma. […] was incubated for 30 minutes at 37° C. in a water bath. A 200 μl sample was withdrawn from the incubated mixture, chilled immediately in an ice bath, and the amount of angiotensin I produced was determined by radioimmunoassay, and remaining of the mixture (200 μ[…] 4° C. in an ice bath. The amount of angiotensin I produced in the incubated mixture at 4° C. in an ice bath was determined by radioimmunoassay. As a control, the same procedure as above was carried out by using 100 μl of dimethyl sulfoxide alone in place of the 100 μl of dimethyl sulfoxide solution containing an amino acid compound of the present invention. The inhibitory effect was calculated by the following equation. [formula] The molar concentration which produced 50% inhibition (IC50) was calculated from the inhibition value obtained, and the results are shown below.

[4] = system: common marmoset; experiment: Hypotensive effect in marmoset (furosemide-induced high renin state); format: in vivo; settings: oral
Description: The experiment was carried out by using common marmoset as described in K. G. Hofbauer et al., Clinical and Experimental hypertension, Vol. A5, Nos. 7 & 8 (1983), pages 1237-1247.
Furosemide was orally administered three times to common marmoset at 15 mg per kilogram per day every other day to create a high renin state. Blood pressure of conscious marmoset was measured 2 days after the last administration of furosemide.
Measurement of blood pressure
Two conscious male marmosets weighing 365-380 g were fixed. Mean blood pressure at tail artery was recorded on pretismograph instument. The amino acid compound of the present invention, administered orally using a catheter.

[5] = 100 mg/kg, n = 2, 1 hour after administration, control 94.0 in (a), 90.9 in (c)
[6] = 100 mg/kg, n = 2, 2 hours after administration, control 94.0 in (a), 90.9 in (c)
[7] = 100 mg/kg, n = 2, 3 hours after administration, control 94.0 in (a), 90.9 in (c)
[8] = 100 mg/kg, n = 2, 5 hours after administration, control 94.0 in (a), 90.9 in (c)
[9] = 100 mg/kg, n = 2, 7 hours after administration, control 94.0 in (a), 90.9 in (c)

SMILES: CC(C)CC(NC(=O)[C@H](Cc1c[nH]cn1)NC(=O)C(CC(=O)N1CCOCC1)Cc1cccc2ccccc12)C(O)C(=O)OC(C)C (stereo partly shown)
human renin inhibitory activity [1]: human renin inhibitory activity

pIC50 [2]: 7.60
pIC50 [3]: 7.25
SMILES: COC(=O)CC(Cc1cccc2ccccc12)C(=O)N[C@@H](Cc1c[nH]cn1)C(=O)N[C@@H](CC(C)C)C(O)C(=O)OC(C)C (mixture of isomers) [Isopropyl (2RS,3S)-3-[3-(methoxycarbonyl)-2-(1-naphthylmethyl)propionyl-L-histidyl]amino-2-hydroxy-5-methylhexanoate]
Blood pressure [4, 5]: 78.6 mmHg
Blood pressure [4, 6]: 76.9 mmHg
Blood pressure [4, 7]: 69.4 mmHg
Blood pressure [4, 8]: 76.0 mmHg
Blood pressure [4, 9]: 77.8 mmHg
Blood pressure ([4]; 100 mg/kg, n = 2, 9 hours after administration, control 90.9 in (c)): 85.3 mmHg

pIC50 [2]: 7.77
pIC50 [3]: 7.70
SMILES: COC(=O)CN(C)C(=O)CC(Cc1cccc2ccccc12)C(=O)N[C@@H](Cc1c[nH]cn1)C(=O)N[C@@H](CC(C)C)C(O)C(=O)OC(C)C (mixture of isomers) [Isopropyl(2RS,3S)-3-{N-[2-(1-naphthylmethyl)-3-(N-methyl-N-methoxycarbonylmethylcarbamoyl)propionyl]-L-histidyl}amino-2-hydroxy-5-methylhexanoate]
Blood pressure ([4]; 30 mg/kg, n = 2, 1 hour after administration, control 95.4): 62.1 mmHg
Blood pressure ([4]; 30 mg/kg, n = 2, 2 hours after administration, control 95.4): 59.8 mmHg
Blood pressure ([4]; 30 mg/kg, n = 2, 3 hours after administration, control 95.4): 66.5 mmHg
Blood pressure ([4]; 30 mg/kg, n = 2, 5 hours after administration, control 95.4): 84.9 mmHg
Blood pressure ([4]; 30 mg/kg, n = 2, 7 hours after administration, control 95.4): 88.3 mmHg

pIC50 [2]: 7.28
pIC50 [3]: 7.30
SMILES: COC(=O)[C@@H]1CCCN1C(=O)CC(Cc1cccc2ccccc12)C(=O)N[C@@H](Cc1c[nH]cn1)C(=O)N[C@@H](CC(C)C)C(O)C(=O)OC(C)C (stereo partly drawn) [Isopropyl(2RS,3S)-3-{N-[2-(1-naphthylmethyl)-3-(2S-methoxycarbonylpyrrolidinocarbonyl)propionyl]-L-histidyl}-amino-2-hydroxy-5-methylhexanoate]
Blood pressure [4, 5]: 77.5 mmHg
Blood pressure [4, 6]: 74.0 mmHg
Blood pressure [4, 7]: 70.0 mmHg
Blood pressure [4, 8]: 92.2 mmHg
Blood pressure [4, 9]: 101.5 mmHg

pIC50 [2]: 7.40
pIC50 [3]: 7.28
SMILES: COC(=O)C(O)[C@H](CC(C)C)NC(=O)[C@H](Cc1c[nH]cn1)NC(=O)C(CC(=O)N1CCC[C@H]1C(=O)OC)Cc1cccc2ccccc12 (stereo partly drawn) [Methyl(2RS,3S)-3-{N-[2-(1-naphthylmethyl)-3-(2S-methoxycarbonylpyrrolidinocarbonyl)propionyl]-L-histidyl}amino-2-hydroxy-5-methylhexanoate]

pIC50 [2]: 6.92
pIC50 [3]: 6.66
SMILES: COC(=O)[C@@H]1CCCN1C(=O)CC(Cc1cccc2ccccc12)C(=O)N[C@@H](Cc1c[nH]cn1)C(=O)N[C@@H](CC(C)C)[C@@H](O)CC(=O)NCCC(C)C (stereo partly drawn) [N-[2-(1-Naphthylmethyl)-3-(2S-methoxycarbonylpyrrolidinocarbonyl)propionyl]-L-histidyl-statylisoamylamide]

pIC50 [2]: 7.46
pIC50 [3]: 7.46
SMILES: COC(=O)CN(C)C(=O)CC(Cc1cccc2ccccc12)C(=O)N[C@@H](Cc1c[nH]cn1)C(=O)N[C@@H](CC(C)C)[C@@H](O)CC(=O)NCCC(C)C (stereo partly drawn) [N-[2-(1-Naphthylmethyl)-3-(N-methyl-N-methoxycarbonylmethylcarbamoyl)propionyl]-L-histidyl-statylisoamylamide]

pIC50 [2]: 7.43
pIC50 [3]: 7.22
SMILES: COC(=O)CC(Cc1cccc2ccccc12)C(=O)N[C@@H](Cc1c[nH]cn1)C(=O)N[C@@H](CC(C)C)[C@@H](O)CC(=O)NCCC(C)C (stereo partly drawn) [N-[3-(methoxycarbonyl)-2-(1-naphthylmethyl)propionyl]-L-histidyl-statylisoamylamide]
